Experimental findings from patent publication US20170107254A1, “Modified Antimicrobial Peptides” (priority 2014, published 2017) are described below.

In brackets after ≈: the same amount, converted by molar mass. Where two headings read alike, the source gives them in different places.

The nature of one data set: in vitro. Conditions: human, A549 cells.
Data set [1] concerns C. albicans SC5314. The data set is classed as cell-based. How it is done: 1×RPMI-1640 Buffered with Citrate Phosphate Buffer
Citrate phosphate buffer was prepared by mixing 0.1 M citric acid and 0.2 M dibasic sodium phosphate dodecahydrate in the proportions indicated in the Table 2 and the volume adjusted to 90 ml with dH2O.
pH buffered medium was prepared by dissolving 1.04 g RPMI-1640 premix powder in 10 ml citrate phosphate buffer. The volume was then adjusted to 40 ml with dH2O and the pH adjusted by addition of the acid or base. The volume was adjusted to 50 ml with dH2O. The medium was then filter sterilized by vacuum filtration through a 0.2 μm filter and stored at 4° C. and kept for up to 2 weeks.
The pH of RPMI-1640 was altered, using citrate phosphate buffer, to reflect the more acidic pH environment in the oral cavity. NP319 and NP377 were active against C. albicans SC5314 from pH 5.5-7.0 (Table 2). For all AMPs tested the optimum pH for activity was pH 5.5. NP377 maintained activity at 2 μg/ml from pH 5.5-7 with reduced activity at pH 5.

The subject of data set [2] is C. albicans SC5314. As to the kind of experiment: MIC in the presence of 10% sterile filtered human saliva. Type of data set: cell-based. How it is done: AMPs of the same sequence length were tested versus C. albicans SC5314 in the presence of 10% (v/v) filtered human saliva at pH 7.0. Positive control is 1×RPMI-1640+cells, no peptide. Data is expressed as percentage of the positive growth controls. Data is the mean±standard error of the mean. (n=3)
Determination of Minimum Inhibitory Concentration (MIC) in Presence of Sterile Filtered Saliva
To test if saliva protease could result in a reduction in AMP antifungal activity against C. albicans, antifungal susceptibility testing was conducted in the presence of 10% (v/v) sterile filtered human saliva.

Data set [3] relates to human red blood cells (hRBC). As to the kind of experiment: Haemolysis of human red blood cells. The note with it: at 2500 μg/ml, 3 h.
Method: Peptides were tested for their haemolytic activity against human red blood cells (hRBC). Fresh hRBCs collected in BD Vacutainer® tubes with EDTA were rinsed 3 times with PBS (pH 7.4) by centrifugation for 10 min at 800 g and resuspended, 1 in 10 diluted with PBS. […] Release of haemoglobin was then calculated by transferring supernatant to a flat bottomed 96-well plate and measuring absorbance at 578 nm. hRBCs with no peptides added and H2O provided the controls.

Method for in vitro: The cell lines A549 (Human Lung Adenocarcinoma Epithelial Cell Line) and HepG2 (Human Hepatocellular Carcinoma Cell Line) were purchased from ATCC. A549 cells were maintained in F-12K medium (Gibco) containing 10% foetal bovine serum (Life Technologies) and 1% penicillin/streptomycin (Life Technologies) and HepG2 cells were maintained in Dulbecco's modified eagles medium (Gibco) containing 10% foetal bovine serum (Life Technologies), penicillin/streptomycin (Life Technologies) and 1% 0.01 mg/ml human transferrin (Sigma). Both were incubated at 37° C. with 5% CO2 until cells reached >80% confluence before splitting or experimental use.
Before exposure to peptides, the plate was incubated at 37° C. with 5% CO2 overnight to allow cells adhere. […] Medium was removed from the plate containing cells and peptide dilutions were transferred to cells and incubated for a further 3 h at 37° C. with 5% CO2. Cytotoxicity was determined by LIVE/DEAD® Viability/Cytotoxicity kit (Invitrogen Life Technologies), a working solution of 2 μM calcein AM and 4 μM EthD-1 and in conjunction Alamar Blue at a final concentration of 10% was added to the wells. Cells without peptides were the negative control and 1% DMSO was the positive control. Cells were incubated for 3 h again at 37° C. with 5% CO2.

Broadly, the CC50 is the concentration giving 50% cytotoxicity. High values mean lower toxicity to the cells, low ones greater toxicity to the cells. In turn, `CCCCCCCCCCCCCCCC(=O)N[C@@H](CCCNC(=N)N)C(=O)N[C@@H](CCCNC(=N)N)C(=O)N[C@@H](CCCNC(=N)N)C(=O)N[C@@H](CCCNC(=N)N)C(=O)N[C@@H](CCCNC(=N)N)C(=O)N[C@@H](CCCNC(=N)N)C(=O)N[C@@H](CCCNC(=N)N)C(=O)N[C@@H](CCCNC(=N)N)C(=O)N[C@@H](CCCNC(=N)N)C(=O)N[C@@H](CCCNC(=N)N)C(=O)N[C@@H](CCCNC(=N)N)C(=O)N[C@@H](CCCNC(=N)N)C(=O)O` [C16-(Rx12)] came in with a CC50 at 3 h in “in vitro” of 30 µg/mL (≈ 14.1 µM).

In general, MIC50 refers to an inhibitory concentration at the 50% level, which refers to growth in some studies and to a panel of isolates in others. Higher therefore signals lower susceptibility. As to `N=C(N)NCCC[C@@H](N)C(=O)N[C@H](CCCNC(=N)N)C(=O)N[C@H](CCCNC(=N)N)C(=O)N[C@H](CCCNC(=N)N)C(=O)N[C@H](CCCNC(=N)N)C(=O)N[C@H](CCCNC(=N)N)C(=O)N[C@H](CCCNC(=N)N)C(=O)N[C@H](CCCNC(=N)N)C(=O)N[C@H](CCCNC(=N)N)C(=O)N[C@H](CCCNC(=N)N)C(=O)N[C@H](CCCNC(=N)N)C(=O)N[C@H](CCCNC(=N)N)C(=O)N[C@H](CCCNC(=N)N)C(=O)N[C@H](Cc1c[nH]cn1)C(=O)N[C@H](Cc1c[nH]cn1)C(N)=O` [NP377, dRdRdRdRdRdRdRdRdRdRdRdRdRdHdH-CONH], the “concentration at which activity was maintained” value in the data set with C. albicans SC5314 [1] (from pH 5.5-7) turned out to be 2 µg/mL. The MIC50 with C. albicans SC5314 [1] (pH 4.5) amounted to 32 µg/mL (≈ 13.8 µM); in the data set on C. albicans SC5314 [1] (pH 5), 4 µg/mL (≈ 1.72 µM); with C. albicans SC5314 [1] (pH 5.5), 1 µg/mL (≈ 0.431 µM); with C. albicans SC5314 [1] (pH 6), 2 µg/mL (≈ 0.861 µM); in the data set on C. albicans SC5314 [1] (pH 6.5) it was 2 µg/mL (≈ 0.861 µM); in the data set on C. albicans SC5314 [1] (pH 7), 2 µg/mL (≈ 0.861 µM). For the same compound, the MIC100 in the data set on C. albicans SC5314 [1] (pH 4.5) was more than 64 µg/mL; against C. albicans SC5314 [1] (pH 5), 8 µg/mL (≈ 3.45 µM); with C. albicans SC5314 [1] (pH 5.5) it was 2 µg/mL (≈ 0.861 µM); in the data set with C. albicans SC5314 [1] (pH 6), 2 µg/mL (≈ 0.861 µM); against C. albicans SC5314 [1] (pH 6.5) it was 2 µg/mL (≈ 0.861 µM); against C. albicans SC5314 [1] (pH 7) it was 4 µg/mL (≈ 1.72 µM). Further, the MIC100 with C. albicans SC5314 [2] (10% (v/v) sterile filtered human saliva, pH 7.0) was determined as 2 µg/mL. For the same compound, in the data set on C. albicans SC5314 [2] (filtered human saliva), the “antifungal activity in the presence of filtered human saliva” value was “retain antifungal activity”.

The compound `N=C(N)NCCC[C@H](NC(=O)[C@H](CCCNC(=N)N)NC(=O)[C@H](CCCNC(=N)N)NC(=O)[C@H](CCCNC(=N)N)NC(=O)[C@H](CCCNC(=N)N)NC(=O)[C@H](CCCNC(=N)N)NC(=O)[C@H](CCCNC(=N)N)NC(=O)[C@H](CCCNC(=N)N)NC(=O)[C@H](CCCNC(=N)N)NC(=O)[C@H](CCCNC(=N)N)NC(=O)[C@H](CCCNC(=N)N)NC(=O)[C@H](CCCNC(=N)N)NC(=O)[C@H](CCCNC(=N)N)NC(=O)[C@@H](N)CCCNC(=N)N)C(=O)O` [Rx14] had a CC50 at 3 h in the data set “in vitro” of more than 2500 µg/mL. In data set [3], the “Haemolysis RBCs % at 2500” value stood at 0%.
